Measurements as given in ChEMBL document CHEMBL1201862, “PubChem BioAssay data set” (2004).
Several values for one entry are separate records, joined by “and”; a condition that tells them apart may be missing. Identical values can stand only once.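 In this assay, cells in 96-well plates receive the compound at five concentrations for 48 hours. Endpoints are linearly interpolated between the surrounding concentrations. GI50 marks 50% less growth.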 Activity calls are given as the source filed them. Cut-off read from the data, not from the text of the source: active = GI50 up to about 1.1 µM and inactive = higher.

How the values were obtained:
Test in all cases: NCI tumour cell line growth inhibition, 48 h
[1] = system: HCT-15
[2] = system: U-251
[3] = system: Hs-578T
[4] = system: SR
[5] = system: RPMI-8226
[6] = system: RXF 393
[7] = system: MDA-N
[8] = system: ACHN
[9] = system: COLO 205
[10] = system: A549
[11] = system: OVCAR-4
[12] = system: UACC-257
[13] = system: K562
[14] = system: NCI-H23
[15] = system: LOX IMVI
[16] = system: HL-60
[17] = system: HCT-116
[18] = system: SNB-75
[19] = system: UO-31
[20] = system: SN12C
[21] = system: EKVX
[22] = system: M14
[23] = system: NCI-H522
[24] = system: A498
[25] = system: NCI-H460
[26] = system: IGROV-1
[27] = system: OVCAR-8
[28] = system: BT-549
[29] = system: MDA-MB-435
[30] = system: CCRF-CEM
[31] = system: DU-145
[32] = system: HOP-62
[33] = system: MCF7
[34] = system: PC-3
[35] = system: HT-29
[36] = system: SK-MEL-28
[37] = system: T47D
[38] = system: MOLT-4
[39] = system: SW-620
[40] = system: CAKI-1
[41] = system: MDA-MB-231
[42] = system: SK-MEL-2
[43] = system: SK-MEL-5
[44] = system: UACC-62
[45] = system: SK-OV-3
[46] = system: SNB-19
[47] = system: HCC 2998
[48] = system: Malme-3M
[49] = system: NCI/ADR-RES
[50] = system: 786-0
[51] = system: HOP-92
[52] = system: KM12
[53] = system: OVCAR-5
[54] = system: SF-539
[55] = system: NCI-H226
[56] = system: SF-295
[57] = system: TK-10
[58] = system: OVCAR-3

Measured: GI50

CC(=O)O[C@H]1CC2C(C3CC[C@H](C(C)CCC(=O)O)[C@]31C)[C@H](OC(C)=O)C[C@@H]1CC3(CC[C@]21C)OOC1(CCC(C)CC1)OO3 (stereo not given in full)
2.37 µM and 2.96 µM: [1]
inactive: [2] 1.76 µM and 3.35 µM | [3] 3.4 µM and 1.76 µM | [4] 1.55 µM | [5] 1.91 µM and 2.05 µM | [6] 7.82 µM and 12.9 µM | [7] 3.77 µM and 5.71 µM | [8] 2.59 µM and 4.31 µM | [9] 2.53 µM | [10] 1.55 µM and 2.82 µM | [11] 2.56 µM and 2.32 µM | [12] 6.92 µM and 11.7 µM | [13] 3.13 µM and 3.9 µM | [14] 2.28 µM and 4.31 µM | [15] 2.15 µM and 3.27 µM | [16] 2.97 µM and 2.37 µM | [17] 2.16 µM and 4.11 µM | [18] 1.6 µM | [19] 2.61 µM | [20] 2.72 µM and 4.18 µM | [21] 2.08 µM | [22] 3.49 µM and 6.67 µM | [23] 2.98 µM and 1.61 µM | [24] 15 µM and 13 µM | [25] 2.33 µM and 3.53 µM | [26] 2.01 µM | [27] 1.98 µM and 2.85 µM | [28] 3.69 µM and 2.74 µM | [29] 2.62 µM and 4.74 µM | [30] 1.67 µM and 2.03 µM | [31] 3.32 µM and 4.98 µM | [32] 3.16 µM | [33] 2.96 µM and 4.86 µM | [34] 5.15 µM and 3.17 µM | [35] 2.11 µM and 1.81 µM | [36] 2.06 µM and 1.66 µM | [37] 3.07 µM and 2.31 µM | [38] 2.2 µM and 1.51 µM

COc1ccc(NC(C)=O)cc1N1C(=O)/C(=C\c2cc(OC)c(OC)c(OC)c2)SC1c1ccccc1 (stereo not given)
inactive: [2] 34.7 µM | [39] 52.7 µM | [40] 19 µM | [4] 27.8 µM | [41] 19.4 µM | [5] 17.4 µM | [6] 33.5 µM | [7] 25.5 µM | [42] 57.9 µM | [8] 44.4 µM | [9] 39.6 µM | [10] 57.8 µM | [43] 33.7 µM | [11] 39 µM | [44] 67.9 µM | [12] 67.9 µM | [13] 30.9 µM | [14] 72.8 µM | [15] 39.3 µM | [45] 82.2 µM | [16] 20.4 µM | [46] 83.4 µM | [17] 30 µM | [18] 26.9 µM | [47] > 100 µM | [19] 22.1 µM | [20] 40.2 µM | [21] 24.9 µM | [48] 47 µM | [49] 45.6 µM | [22] 49.8 µM | [23] 28.6 µM | [24] 75 µM | [50] 54 µM | [25] 43.2 µM | [26] 23.8 µM | [27] 48.1 µM | [28] 97.5 µM | [29] 36 µM | [51] 29.5 µM | [52] 40.6 µM | [53] > 100 µM | [54] 64.6 µM | [30] 37 µM | [31] 91.4 µM | [32] 63.7 µM | [33] 28.2 µM | [34] 31.5 µM | [55] 50.9 µM | [35] 47.1 µM | [56] 52 µM | [57] > 100 µM | [36] 41.9 µM | [58] 36.1 µM | [37] 33.5 µM | [38] 19.3 µM
38.1 µM: [1]
